Data reported in patent publication US6667387B1, “HCV core peptides” (priority 1992, dated 2003).
Ends that are not written are not given here.

Experiments:
[1] = tested on: antibodies in sera from HCV-seropositive donors; assay: ELISA with HCV antibody-positive sera (biotinylated peptides on streptavidin- or avidin-coated plates, unbiotinylated peptides coated directly); type: binding, human
Summary of the method: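 Peptides coated either directly at 2–5 or 3 μg/ml in carbonate buffer pH 9.6, or biotinylated at 1 μg/ml on streptavidin-coated wells (3 μg/ml). Plates casein-blocked, then human sera (1:100 or 1:20) incubated 1 h at 37° C. Bound antibody detected with HRP anti-human Ig/TMB, read as OD450.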

[2] = ELISA with seronegative / negative control sera (specificity); type: binding, human
Summary of the method: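 Specificity readout is OD at 450 nm (HRP goat anti-human Ig, TMB/H2O2, sulfuric acid stop), with ≥0.250 counted positive. Seronegative donor sera (typically 1:100, 1 h, 37° C) were applied to casein-blocked wells coated with peptide directly or via streptavidin capture of biotinylated peptide.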

## ETWKKPDYEPPVVHGCPLPP
[1]; Table 4G, serum 1, 20-fold dilution
  optical density (450 nm): 2.523
[1]; Table 4G, serum 33, 20-fold dilution
  optical density (450 nm): 1.463
[1]; Table 4G, serum 39, 20-fold dilution
  optical density (450 nm): 0.068
[1]; Table 4G, serum 47, 20-fold dilution
  optical density (450 nm): 2.117
[1]; Table 4G, serum 79, 20-fold dilution
  optical density (450 nm): 1.739
[1]; Table 4G, serum 83, 20-fold dilution
  optical density (450 nm): 1.121
[1]; Table 4G, serum 88, 20-fold dilution
  optical density (450 nm): 0.972
[1]; Table 4G, serum 89, 20-fold dilution
  optical density (450 nm): 2.079
[1]; Table 4G, serum 91, 20-fold dilution
  optical density (450 nm): 2.202
[1]; Table 4G, serum 99, 20-fold dilution
  optical density (450 nm): 1.253
[1]; Table 4G, serum 104, 20-fold dilution
  optical density (450 nm): 1.864
[1]; Table 4G, serum 105, 20-fold dilution
  optical density (450 nm): 1.522
[1]; Table 4G, serum 110, 20-fold dilution
  optical density (450 nm): 1.981
[1]; Table 4G, serum 111, 20-fold dilution
  optical density (450 nm): 1.363
[1]; Table 4G, serum 112, 20-fold dilution
  optical density (450 nm): 1.172
[1]; Table 4G, serum 116, 20-fold dilution
  optical density (450 nm): 1.534
[1]; Table 4G, serum 120, 20-fold dilution
  optical density (450 nm): 1.599
[1]; Table 5, sample 8242 (positive), peptide concentration 0.01 micrograms per milliliter, listed as Unbiotinylated HCV peptide XVIII
  optical density (450 nm): 0.048
[1]; Table 5, sample 8242 (positive), peptide concentration 0.03 micrograms per milliliter, listed as Unbiotinylated HCV peptide XVIII
  optical density (450 nm): 0.049
[1]; Table 5, sample 8242 (positive), peptide concentration 0.1 micrograms per milliliter, listed as Unbiotinylated HCV peptide XVIII
  optical density (450 nm): 0.047
[1]; Table 5, sample 8242 (positive), peptide concentration 0.3 micrograms per milliliter, listed as Unbiotinylated HCV peptide XVIII
  optical density (450 nm): 0.048
[1]; Table 5, sample 8242 (positive), peptide concentration 1.0 micrograms per milliliter, listed as Unbiotinylated HCV peptide XVIII
  optical density (450 nm): 0.049
[1]; Table 5, sample 8242 (positive), peptide concentration 3.0 micrograms per milliliter, listed as Unbiotinylated HCV peptide XVIII
  optical density (450 nm): 0.053
[1]; Table 5, sample 8243 (positive), peptide concentration 0.01 micrograms per milliliter, listed as Unbiotinylated HCV peptide XVIII
  optical density (450 nm): 0.053
[1]; Table 5, sample 8243 (positive), peptide concentration 0.03 micrograms per milliliter, listed as Unbiotinylated HCV peptide XVIII
  optical density (450 nm): 0.053
[1]; Table 5, sample 8243 (positive), peptide concentration 0.1 micrograms per milliliter, listed as Unbiotinylated HCV peptide XVIII
  optical density (450 nm): 0.051
[1]; Table 5, sample 8243 (positive), peptide concentration 0.3 micrograms per milliliter, listed as Unbiotinylated HCV peptide XVIII
  optical density (450 nm): 0.054
[1]; Table 5, sample 8243 (positive), peptide concentration 1.0 micrograms per milliliter, listed as Unbiotinylated HCV peptide XVIII
  optical density (450 nm): 0.053
[1]; Table 5, sample 8243 (positive), peptide concentration 3.0 micrograms per milliliter, listed as Unbiotinylated HCV peptide XVIII
  optical density (450 nm): 0.057
[1]; Table 5, sample 8318 (positive), peptide concentration 0.01 micrograms per milliliter, listed as Unbiotinylated HCV peptide XVIII
  optical density (450 nm): 0.048
[1]; Table 5, sample 8318 (positive), peptide concentration 0.03 micrograms per milliliter, listed as Unbiotinylated HCV peptide XVIII
  optical density (450 nm): 0.047
[1]; Table 5, sample 8318 (positive), peptide concentration 0.1 micrograms per milliliter, listed as Unbiotinylated HCV peptide XVIII
  optical density (450 nm): 0.047
[1]; Table 5, sample 8318 (positive), peptide concentration 0.3 micrograms per milliliter, listed as Unbiotinylated HCV peptide XVIII
  optical density (450 nm): 0.047
[1]; Table 5, sample 8318 (positive), peptide concentration 1.0 micrograms per milliliter, listed as Unbiotinylated HCV peptide XVIII
  optical density (450 nm): 0.045
[1]; Table 5, sample 8318 (positive), peptide concentration 3.0 micrograms per milliliter, listed as Unbiotinylated HCV peptide XVIII
  optical density (450 nm): 0.051
[1]; Table 5, sample 8326 (positive), peptide concentration 0.01 micrograms per milliliter, listed as Unbiotinylated HCV peptide XVIII
  optical density (450 nm): 0.051
[1]; Table 5, sample 8326 (positive), peptide concentration 0.03 micrograms per milliliter, listed as Unbiotinylated HCV peptide XVIII
  optical density (450 nm): 0.051
[1]; Table 5, sample 8326 (positive), peptide concentration 0.1 micrograms per milliliter, listed as Unbiotinylated HCV peptide XVIII
  optical density (450 nm): 0.049
[1]; Table 5, sample 8326 (positive), peptide concentration 0.3 micrograms per milliliter, listed as Unbiotinylated HCV peptide XVIII
  optical density (450 nm): 0.053
[1]; Table 5, sample 8326 (positive), peptide concentration 1.0 micrograms per milliliter, listed as Unbiotinylated HCV peptide XVIII
  optical density (450 nm): 0.053
[1]; Table 5, sample 8326 (positive), peptide concentration 3.0 micrograms per milliliter, listed as Unbiotinylated HCV peptide XVIII
  optical density (450 nm): 0.052
[2]; Table 4G, negative serum
  optical density (450 nm): 0.001
[2]; Table 5, sample 1747 (negative), peptide concentration 0.01 micrograms per milliliter, listed as Unbiotinylated HCV peptide XVIII
  optical density (450 nm): 0.047
[2]; Table 5, sample 1747 (negative), peptide concentration 0.03 micrograms per milliliter, listed as Unbiotinylated HCV peptide XVIII
  optical density (450 nm): 0.044
[2]; Table 5, sample 1747 (negative), peptide concentration 0.1 micrograms per milliliter, listed as Unbiotinylated HCV peptide XVIII
  optical density (450 nm): 0.045
[2]; Table 5, sample 1747 (negative), peptide concentration 0.3 micrograms per milliliter, listed as Unbiotinylated HCV peptide XVIII
  optical density (450 nm): 0.046
[2]; Table 5, sample 1747 (negative), peptide concentration 1.0 micrograms per milliliter, listed as Unbiotinylated HCV peptide XVIII
  optical density (450 nm): 0.045
[2]; Table 5, sample 1747 (negative), peptide concentration 3.0 micrograms per milliliter, listed as Unbiotinylated HCV peptide XVIII
  optical density (450 nm): 0.048
[2]; Table 5, sample 1781 (negative), peptide concentration 0.01 micrograms per milliliter, listed as Unbiotinylated HCV peptide XVIII
  optical density (450 nm): 0.053
[2]; Table 5, sample 1781 (negative), peptide concentration 0.03 micrograms per milliliter
  optical density (450 nm): 0.051
[2]; Table 5, sample 1781 (negative), peptide concentration 0.1 micrograms per milliliter, listed as Unbiotinylated HCV peptide XVIII
  optical density (450 nm): 0.051
[2]; Table 5, sample 1781 (negative), peptide concentration 0.3 micrograms per milliliter, listed as Unbiotinylated HCV peptide XVIII
  optical density (450 nm): 0.051
[2]; Table 5, sample 1781 (negative), peptide concentration 1.0 micrograms per milliliter, listed as Unbiotinylated HCV peptide XVIII
  optical density (450 nm): 0.054
[2]; Table 5, sample 1781 (negative), peptide concentration 3.0 micrograms per milliliter, listed as Unbiotinylated HCV peptide XVIII
  optical density (450 nm): 0.055
